# Measured values taken from the Kinase Knowledgebase extract (Sharma et al. 2016).
# pIC50: −log10 of the molar value.
# Key:
# [1] = target: EGFR (human), P00533 [WT]
# EGFR (human) = EGFR (human) (UniProt P00533); details: hcc827
# [2] = target: EGFR (human), P00533 [Inhibition of EGFR(L858RT/790M) Kinase Activity]
# Chain of EGFR (human), P00533 [Inhibition of EGFR(L858RT/790M) Kinase Activity] (P00533 whole entry, looked up, change not shown): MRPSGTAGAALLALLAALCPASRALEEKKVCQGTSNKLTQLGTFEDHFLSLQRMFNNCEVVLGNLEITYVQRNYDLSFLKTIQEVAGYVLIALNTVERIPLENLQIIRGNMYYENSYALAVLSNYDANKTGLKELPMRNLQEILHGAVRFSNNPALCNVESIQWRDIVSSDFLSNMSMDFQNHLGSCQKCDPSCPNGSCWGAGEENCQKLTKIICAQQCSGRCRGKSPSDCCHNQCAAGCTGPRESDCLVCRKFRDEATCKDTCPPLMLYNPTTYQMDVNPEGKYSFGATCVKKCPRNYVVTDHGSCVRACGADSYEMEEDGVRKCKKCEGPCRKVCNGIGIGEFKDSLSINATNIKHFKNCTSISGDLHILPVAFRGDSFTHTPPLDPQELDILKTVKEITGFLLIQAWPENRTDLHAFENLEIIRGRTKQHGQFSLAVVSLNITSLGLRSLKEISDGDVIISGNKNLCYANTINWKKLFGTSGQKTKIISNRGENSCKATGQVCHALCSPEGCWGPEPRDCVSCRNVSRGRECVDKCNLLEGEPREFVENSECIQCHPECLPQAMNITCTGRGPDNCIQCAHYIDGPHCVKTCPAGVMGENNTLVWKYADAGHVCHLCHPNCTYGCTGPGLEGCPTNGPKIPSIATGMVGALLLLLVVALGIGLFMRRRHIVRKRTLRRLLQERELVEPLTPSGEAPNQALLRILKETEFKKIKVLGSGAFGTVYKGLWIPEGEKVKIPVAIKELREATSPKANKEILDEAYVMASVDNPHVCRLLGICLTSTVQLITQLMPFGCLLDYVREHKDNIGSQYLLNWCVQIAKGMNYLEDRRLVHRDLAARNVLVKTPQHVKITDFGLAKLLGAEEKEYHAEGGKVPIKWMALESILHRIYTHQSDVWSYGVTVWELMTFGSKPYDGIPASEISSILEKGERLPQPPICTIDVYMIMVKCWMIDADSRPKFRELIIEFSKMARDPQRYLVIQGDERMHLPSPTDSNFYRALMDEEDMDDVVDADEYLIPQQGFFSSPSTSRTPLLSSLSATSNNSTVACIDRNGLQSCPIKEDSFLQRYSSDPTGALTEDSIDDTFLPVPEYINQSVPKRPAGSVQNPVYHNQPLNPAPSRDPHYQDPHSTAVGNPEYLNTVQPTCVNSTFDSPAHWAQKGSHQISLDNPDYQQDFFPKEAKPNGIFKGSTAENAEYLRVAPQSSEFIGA
# Chain of EGFR (human), P00533 [WT] (P00533 whole entry, looked up): as the sequence (P00533 whole entry, looked up, change not shown) above
# Chain of EGFR (human) (P00533 whole entry, looked up): as the sequence (P00533 whole entry, looked up, change not shown) above
SMILES,pIC50 [1],pIC50 (EGFR (human)),pIC50 [2]
CCC[C@@H](Nc1ncnc2sc3c(c12)CCN(C(=O)/C=C/CN(C)C)C3)c1ccccc1,> 7.23,7.00 to 9.00,–
C=CC(=O)N1CCc2c(sc3ncnc(N[C@H](CO[Si](C)(C)C(C)(C)C)c4ccccc4)c23)C1,6.05 to 7.00,6.00 to 6.52,–
C=CC(=O)N1CCc2c(sc3ncnc(N[C@H](CCO)c4ccccc4)c23)C1,> 7.23,7.00 to 9.00,6.30 to 8.00
CCN(CC)C/C=C/C(=O)N1CCc2c(sc3ncnc(N[C@H](CO)c4ccccc4)c23)C1,> 7.23,7.00 to 9.00,5.60 to 6.30
O=C(O)[C@@H](Nc1ncnc2sc3c(c12)CCC3)c1ccccc1,6.05 to 7.00,–,–
CCN(C/C=C/C(=O)N1CCc2c(sc3ncnc(N[C@H](C)c4ccccc4)c23)C1)CCO,> 7.23,7.00 to 9.00,–
O=C(/C=C/CN1CCOCC1)N1CCc2c(sc3ncnc(N[C@H](CO)c4ccccc4)c23)C1,> 7.23,7.00 to 9.00,5.60 to 6.30
CC(C)NC/C=C/C(=O)N1CCc2c(sc3ncnc(N[C@H](C)c4ccccc4)c23)C1,6.05 to 7.00,7.00 to 9.00,–
C[C@@H](Nc1ncnc2sc3c(c12)CCN(C(=O)/C=C/CN(CCO)CCO)C3)c1ccccc1,> 7.23,7.00 to 9.00,5.60 to 6.30
CN(C)C/C=C/C(=O)N1CCc2c(sc3ncnc(N[C@H](CO[Si](C)(C)C(C)(C)C)c4ccccc4)c23)C1,7.00 to 7.22,6.00 to 6.52,–
CC[C@@H](Nc1ncnc2sc3c(c12)CCCC3)c1ccccc1,6.05 to 7.00,6.00 to 6.52,–
C[C@@H](Nc1ncnc2sc3c(c12)CCN(C(=O)/C=C/CN(C)CCO)C3)c1ccccc1,> 7.23,7.00 to 9.00,–
CC(=O)OC/C=C/C(=O)N1CCc2c(sc3ncnc(N[C@H](C)c4ccccc4)c23)C1,> 7.23,7.00 to 9.00,–
CN(C)C/C=C/C(=O)N1CCc2c(sc3ncnc(N[C@H](COCc4cccnc4)c4ccccc4)c23)C1,> 7.23,7.00 to 9.00,–
CNC/C=C/C(=O)N1CCc2c(sc3ncnc(N[C@H](C)c4ccccc4)c23)C1,> 7.23,7.00 to 9.00,5.60 to 6.30
C[C@@H](Nc1ncnc2sc3c(c12)CCN(C(=O)/C=C/CN(C)C)C3)c1ccccc1,> 7.23,7.00 to 9.00,5.60 to 6.30
CCOC(=O)/C=C/C(=O)N1CCc2c(sc3ncnc(N[C@H](CO)c4ccccc4)c23)C1,–,7.00 to 9.00,–
C=CC(=O)N1CCc2c(sc3ncnc(N[C@H](CC)c4ccccc4)c23)C1,> 7.23,7.00 to 9.00,5.60 to 6.30
C=CC(=O)N1CCc2c(sc3ncnc(N[C@H](COCc4cccc([N+](=O)[O-])c4)c4ccccc4)c23)C1,> 7.23,7.00 to 9.00,6.30 to 8.00
CCN(CC)C/C=C/C(=O)N1CCc2c(sc3ncnc(N[C@H](C)c4ccccc4)c23)C1,> 7.23,7.00 to 9.00,5.60 to 6.30

SMILES,pIC50 [1],pIC50 (EGFR (human)),pIC50 [2]
COC[C@@H](Nc1ncnc2sc3c(c12)CCN(C(=O)/C=C/CN(C)C)C3)c1ccccc1,> 7.23,–,–
COc1cccc(COC[C@@H](Nc2ncnc3sc4c(c23)CCN(C(=O)/C=C/CN(C)C)C4)c2ccccc2)c1,> 7.23,7.00 to 9.00,5.60 to 6.30
CN(C)C/C=C/C(=O)N1CCc2c(sc3ncnc(N[C@H](COCc4cccc(F)c4)c4ccccc4)c23)C1,> 7.23,7.00 to 9.00,6.30 to 8.00
O=C(/C=C/CN1CCCCC1)N1CCc2c(sc3ncnc(N[C@H](CO)c4ccccc4)c23)C1,> 7.23,7.00 to 9.00,5.60 to 6.30
COCCN(C)C/C=C/C(=O)N1CCc2c(sc3ncnc(N[C@H](CO)c4ccccc4)c23)C1,> 7.23,–,–
CN(C)C/C=C/C(=O)N1CCc2c(sc3ncnc(Nc4ccc(F)c(Cl)c4)c23)C1,> 7.23,7.00 to 9.00,6.30 to 8.00
CCN(CC)C/C=C/C(=O)N1CCc2c(sc3ncnc(N[C@H](CCO)c4ccccc4)c23)C1,> 7.23,–,–
C=C(CN(C)C)C(=O)N1CCc2c(sc3ncnc(N[C@H](CO)c4ccccc4)c23)C1,6.05 to 7.00,7.00 to 9.00,–
CCN(CC)C/C=C/C(=O)N1CCc2c(sc3ncnc(N[C@H](COC)c4ccccc4)c23)C1,7.00 to 7.22,7.00 to 9.00,–
O=C(O)[C@@H](Nc1ncnc2sc3c(c12)CCCC3)c1ccccc1,6.05 to 7.00,–,–
CN(C)C/C=C/C(=O)N1CCc2c(sc3ncnc(N[C@H](COCc4ccncc4)c4ccccc4)c23)C1,> 7.23,7.00 to 9.00,–
CN(C)C/C=C/C(=O)N1CCc2c(sc3ncnc(N[C@H](COCc4ccc(F)cc4)c4ccccc4)c23)C1,> 7.23,7.00 to 9.00,–
C[C@@H](Nc1ncnc2sc3c(c12)CCN(C(=O)/C=C/CNN1CCCCC1)C3)c1ccccc1,> 7.23,7.00 to 9.00,–
O=C(O)/C=C\C(=O)N1CCc2c(sc3ncnc(N[C@H](CO)c4ccccc4)c23)C1,6.05 to 7.00,–,–
C[C@@H](Nc1ncnc2sc3c(c12)CCN(C(=O)/C=C/CN=[N+]=[N-])C3)c1ccccc1,> 7.23,7.00 to 9.00,–
C[C@@H](Nc1ncnc2sc3c(c12)CCN(C(=O)/C=C/CN(C)C)C3)c1ccc(Br)cc1,> 7.23,7.00 to 9.00,–
CC(=O)OC[C@@H](Nc1ncnc2sc3c(c12)CCN(C(=O)/C=C/CN(C)C)C3)c1ccccc1,> 7.23,–,–
CN(C)C/C=C/C(=O)N1CCc2c(sc3ncnc(N[C@H](CO)Cc4ccccc4)c23)C1,6.05 to 7.00,7.00 to 9.00,–
CN(C)C/C=C/C(=O)N1CCc2c(sc3ncnc(N[C@H](CCO)c4ccccc4)c23)C1,> 7.23,7.00 to 9.00,–

# Now from value to compound:
pIC50 [1],pIC50 (EGFR (human)),pIC50 [2],SMILES
7.00 to 7.22,–,–,COc1ccc(-c2oc3ncnc(N[C@H](CO)c4ccccc4)c3c2-c2ccc(OC)cc2)cc1
7.00 to 7.22,6.00 to 6.52,–,C=CC(=O)Nc1ccc(-c2c(-c3ccccc3)oc3ncnc(N[C@H](CO)c4ccccc4)c23)cc1
6.05 to 7.00,–,–,CC#CC(=O)Nc1cccc(-c2c(-c3ccccc3)oc3ncnc(N[C@H](COC)c4ccccc4)c23)c1
–,6.00 to 6.52,–,CC[C@@H](Nc1ncnc2oc(-c3ccccc3)cc12)c1ccccc1
–,6.00 to 6.52,–,CC[C@@H](Nc1ncnc2oc(-c3ccccc3)c(-c3ccccc3)c12)c1ccccc1
> 7.23,–,–,O=C(O)[C@@H](Nc1ncnc2oc(-c3ccccc3)c(Br)c12)c1ccccc1
6.05 to 7.00,–,6.30 to 8.00,C=CC(=O)Nc1cccc(-c2c(-c3ccccc3)oc3ncnc(N[C@H](COC(=O)C=C)c4ccccc4)c23)c1
> 7.23,–,–,O=C(O)[C@@H](Nc1ncnc2oc(-c3ccccc3)c(-c3ccccc3)c12)c1ccccc1
6.05 to 7.00,–,–,OC[C@@H](Nc1ncnc2sc(-c3ccccc3)cc12)c1ccccc1
> 7.23,7.00 to 9.00,5.60 to 6.30,CN(C)C/C=C/C(=O)N1CCc2c(sc3ncnc(N[C@H](COCc4ccccc4)c4ccccc4)c23)C1
> 7.23,7.00 to 9.00,6.30 to 8.00,C=CC(=O)N1CCc2c(sc3ncnc(N[C@H](COCc4cccc(C)c4)c4ccccc4)c23)C1
6.05 to 7.00,6.52 to 7.00,–,CC(=O)Nc1cccc(-c2c(-c3ccccc3)oc3ncnc(N[C@H](CO)c4ccccc4)c23)c1
> 7.23,6.52 to 7.00,6.30 to 8.00,C=CC(=O)N1CCc2c(sc3ncnc(N[C@H](COCc4ccc(C(F)(F)F)cc4)c4ccccc4)c23)C1
7.00 to 7.22,6.52 to 7.00,–,CC(=O)Nc1ccc(-c2c(-c3ccccc3)oc3ncnc(N[C@H](CO)c4ccccc4)c23)cc1
6.05 to 7.00,–,–,OC[C@@H](Nc1ncnc2sc(-c3ccccc3)c(Cl)c12)c1ccccc1
6.05 to 7.00,6.00 to 6.52,–,OC[C@@H](Nc1ncnc2oc(-c3ccccc3)c(-c3ccccc3)c12)c1ccccc1
> 7.23,7.00 to 9.00,5.60 to 6.30,CN(C)C/C=C/C(=O)N1CCc2c(sc3ncnc(N[C@H](COCc4ccccc4F)c4ccccc4)c23)C1
6.05 to 7.00,6.52 to 7.00,–,OC[C@@H](Nc1ncnc2sc3c(c12)CCCC3)c1ccccc1
6.05 to 7.00,6.00 to 6.52,–,C[C@@H](Nc1ncnc2sc3c(c12)CCN(C(=O)/C=C/CNc1ccccc1)C3)c1ccccc1

pIC50 [1],pIC50 (EGFR (human)),pIC50 [2],SMILES
–,6.00 to 6.52,–,Cc1sc2ncnc(N[C@H](CO)c3ccccc3)c2c1C
–,6.00 to 6.52,–,COC(=O)[C@@H](Nc1ncnc2oc(-c3ccccc3)c(-c3ccccc3)c12)c1ccccc1
7.00 to 7.22,–,–,C/C=C/C(=O)N1CCc2c(sc3ncnc(N[C@H](COCc4cccc(F)c4)c4ccccc4)c23)C1
–,6.00 to 6.52,–,OC[C@@H](Nc1ncnc2sc3c(c12)CCC3)c1ccccc1
6.05 to 7.00,6.00 to 6.52,–,OC[C@@H](Nc1ncnc2oc(-c3ccccc3)c(-c3ccco3)c12)c1ccccc1
> 7.23,6.52 to 7.00,–,C=CC(=O)Nc1cccc(-c2cc3c(N[C@H](CO)c4ccccc4)ncnc3s2)c1
–,6.00 to 6.52,–,CCOC(=O)[C@@H](Nc1ncnc2oc(-c3ccccc3)c(-c3ccccc3)c12)c1ccccc1
6.05 to 7.00,–,–,C=CC(=O)Nc1ccc(-c2nc3c(N[C@H](CO)c4ccccc4)ncnc3o2)cc1
6.05 to 7.00,–,–,OC[C@@H](Nc1ncnc2oc(-c3ccccc3)c(Cl)c12)c1ccccc1
–,6.00 to 6.52,–,CC(=O)OC[C@@H](Nc1ncnc2oc(-c3ccccc3)c(Br)c12)c1ccccc1
7.00 to 7.22,6.00 to 6.52,–,C=CC(=O)Nc1cccc(-c2coc3ncnc(N[C@H](CO)c4ccccc4)c23)c1
> 7.23,7.00 to 9.00,–,C=CC(=O)Nc1cccc(-c2csc3ncnc(N[C@H](CO)c4ccccc4)c23)c1
6.05 to 7.00,–,–,O=C(O)[C@@H](Nc1ncnc2sc(-c3ccccc3)cc12)c1ccccc1
6.05 to 7.00,–,–,C=CC(=O)Nc1cccc(-c2c(-c3ccccc3)oc3ncnc(N(C)[C@H](COC)c4ccccc4)c23)c1
> 7.23,7.00 to 9.00,–,CN(C)C/C=C/C(=O)N1CCc2c(sc3ncnc(N[C@H](CCOCc4ccccc4F)c4ccccc4)c23)C1
6.05 to 7.00,6.52 to 7.00,–,COc1ccc(-c2c(-c3ccccc3)oc3ncnc(N[C@H](CO)c4ccccc4)c23)cc1
6.05 to 7.00,7.00 to 9.00,–,C=CC(=O)Nc1ccc(-c2c(-c3ccccc3)oc3ncnc(N[C@H](C)c4ccccc4)c23)cc1
6.05 to 7.00,6.52 to 7.00,–,OC[C@@H](Nc1ncnc2oc(-c3ccccc3)c(-c3ccoc3)c12)c1ccccc1
